Assay results taken from patent US5223421A, “Identification of methionine Nα-acetyltransferase” (The General Hospital Corporation, priority 1990, dated 1993).

Key:
[1] = system: N^α -acetyltransferase activity of crude yeast lysate, wild-type (AAA1) strain T3A; assay: N^α -acetylation of peptide substrates by crude yeast lysate, wild-type strain; format: biochemical, Saccharomyces cerevisiae; settings: crude lysate of wild-type strain T3A; mean ± SD (N=3-5); normalized to human adrenocorticotropic hormone (1-24); 50 μM peptide
Protocol: (§1) N^α -acetyltransferase activity was determined as previously described [Lee et al., J. Biol. Chem. 263:14948-14955 (1988)]. Aliquots of the lysate or chromatographic fractions were added to 1.5 ml Eppendorf tubes containing a reaction mixture of 50 mM HEPES, pH 7.4, 150 mM KCl, 1 mM DTT, 25 μM [^3 H] acetyl coenzyme A (0.5 μCi) and 50 μM synthetic peptide with an adjusted final volume of 100 μl. The assay mixture was incubated at 30° C. for 30 min. The reaction was stopped by adding 17 μl of 0.5M acetic acid and chilled in an ice bath. The reaction samples were filtered through SP membrane discs (Cuno) (previously pre-swollen in 0.5M acetic acid), and then washed three times with 1 ml of 0.5M acetic acid on a Millipore 1225 sampling manifold. The partially dried membranes were placed in scintillation cocktail and counted with a Beckman LS 3801 scintillation counter. One unit of activity was defined as the amount of enzyme able to transfer 1 pmol of [^3 H] acetyl group from [^3 H] acetyl coenzyme A to synthetic peptide per min under standard enzyme assay conditions defined above.
(§2) The wild-type (containing endogenous N^α -acetyltransferase activity) and the aaa1 (lacking endogenous N^α -acetyltransferase activity) strains were T3A and T3A-a, respectively (Lee, F-J. S., et al., J. Bacteriol. 171, 5795-5802 (1989)). Human adrenocorticotropic hormone (1-24), yeast alcohol dehydrogenase (1-24), and human superoxide dismutase (1-24) have either serine or alanine as amino-terminal residues, while proteinase A inhibitor 3 has a methionine residue. The synthesis of the peptide substrates, the preparation of the crude yeast homogenate, and the assay of enzyme activity were as previously described by Lee et al. (Lee, F-J. S., et al., J. Biol. Chem. 263:14948 (1988); Kamitani, K., et al., J. Biol. Chem. 264:13188 (1989)). The numbers in parentheses refer to the residue numbers, and the letters in parentheses specify the amino acid sequence. Abbreviations: A (alanine), C (cysteine), D (aspartic acid), E (glutamic acid), F (phenylalanine), G (glycine), H (histidine), I (isoleucine), K (lysine), L (leucine), M (methionine), N (asparagine), P (proline), Q (glutamine), R (arginine), S (serine), T (threonine), V (valine), W (tryptophan). Data are reported as mean activity±SD (N=3-5) and are normalized to the activity of the homogenate towards human adrenocorticotropic hormone (1-24).

[2] = target: T1, N^α -acetyltransferase activity of crude yeast lysate, aaa1 mutant strain T3A-a (Saccharomyces cerevisiae, UniProt Q06504); assay: N^α -acetylation of peptide substrates by crude yeast lysate, aaa1 mutant strain; format: biochemical; settings: crude lysate of aaa1 mutant strain T3A-a; mean ± SD (N=3-5); normalized to human adrenocorticotropic hormone (1-24); 50 μM peptide
T1 construct: a crude yeast homogenate from the aaa1 mutant strain; endogenous in cells; host or cells: Saccharomyces cerevisiae strain T3A-a (aaa1), crude lysate
T1 sequence (Q06504 1-195): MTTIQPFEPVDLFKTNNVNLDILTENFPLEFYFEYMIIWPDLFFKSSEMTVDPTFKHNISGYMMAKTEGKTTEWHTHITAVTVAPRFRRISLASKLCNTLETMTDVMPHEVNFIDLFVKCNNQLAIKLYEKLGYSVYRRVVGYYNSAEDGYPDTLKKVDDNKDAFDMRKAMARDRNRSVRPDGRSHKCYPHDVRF
T1 sequence (Q12387 1-796 partner): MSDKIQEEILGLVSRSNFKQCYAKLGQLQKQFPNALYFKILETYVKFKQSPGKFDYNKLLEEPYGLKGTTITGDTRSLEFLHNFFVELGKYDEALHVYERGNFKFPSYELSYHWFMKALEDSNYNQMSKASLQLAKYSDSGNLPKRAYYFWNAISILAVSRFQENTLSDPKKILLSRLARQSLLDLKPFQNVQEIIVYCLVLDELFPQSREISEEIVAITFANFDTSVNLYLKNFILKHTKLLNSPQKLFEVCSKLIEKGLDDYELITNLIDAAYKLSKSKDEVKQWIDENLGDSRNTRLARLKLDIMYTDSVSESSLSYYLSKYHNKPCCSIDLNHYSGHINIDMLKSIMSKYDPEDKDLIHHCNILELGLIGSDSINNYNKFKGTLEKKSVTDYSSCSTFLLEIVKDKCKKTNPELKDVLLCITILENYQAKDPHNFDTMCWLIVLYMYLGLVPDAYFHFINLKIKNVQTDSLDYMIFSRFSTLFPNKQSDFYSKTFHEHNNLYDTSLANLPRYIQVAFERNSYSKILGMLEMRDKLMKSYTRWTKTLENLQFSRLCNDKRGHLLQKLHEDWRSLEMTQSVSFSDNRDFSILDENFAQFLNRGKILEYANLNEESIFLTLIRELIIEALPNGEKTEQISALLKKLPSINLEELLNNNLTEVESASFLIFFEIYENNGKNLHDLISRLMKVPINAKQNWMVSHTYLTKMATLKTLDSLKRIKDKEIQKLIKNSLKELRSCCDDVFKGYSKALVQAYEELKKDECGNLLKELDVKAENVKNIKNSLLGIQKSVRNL
Protocol: as §1, §2

[3] = system: yeast M-N^α -acetyltransferase; assay: Effect of KCl or NaCl on enzyme activity; format: biochemical, Saccharomyces cerevisiae; settings: for reduction in enzyme activity: enzyme assay performed at 0.8M, 800000 µM; for effect on enzyme activity: up to 0.5M in the assay
Protocol: as §1

[4] = target: T2, yeast methionine acetyltransferase (M-N^α AT) (Saccharomyces cerevisiae, UniProt Q06504); settings: Lee et al., J. Biol. Chem. 265:3603-3606 (1990); cited from earlier work
T2 construct: a crude yeast homogenate from the aaa1 mutant strain; endogenous in cells; host or cells: Saccharomyces cerevisiae strain T3A-a (aaa1), crude lysate
T2 sequence (Q06504 1-195): T1 sequence (Q06504 1-195)
T2 sequence (Q12387 2-796 partner limits assumed): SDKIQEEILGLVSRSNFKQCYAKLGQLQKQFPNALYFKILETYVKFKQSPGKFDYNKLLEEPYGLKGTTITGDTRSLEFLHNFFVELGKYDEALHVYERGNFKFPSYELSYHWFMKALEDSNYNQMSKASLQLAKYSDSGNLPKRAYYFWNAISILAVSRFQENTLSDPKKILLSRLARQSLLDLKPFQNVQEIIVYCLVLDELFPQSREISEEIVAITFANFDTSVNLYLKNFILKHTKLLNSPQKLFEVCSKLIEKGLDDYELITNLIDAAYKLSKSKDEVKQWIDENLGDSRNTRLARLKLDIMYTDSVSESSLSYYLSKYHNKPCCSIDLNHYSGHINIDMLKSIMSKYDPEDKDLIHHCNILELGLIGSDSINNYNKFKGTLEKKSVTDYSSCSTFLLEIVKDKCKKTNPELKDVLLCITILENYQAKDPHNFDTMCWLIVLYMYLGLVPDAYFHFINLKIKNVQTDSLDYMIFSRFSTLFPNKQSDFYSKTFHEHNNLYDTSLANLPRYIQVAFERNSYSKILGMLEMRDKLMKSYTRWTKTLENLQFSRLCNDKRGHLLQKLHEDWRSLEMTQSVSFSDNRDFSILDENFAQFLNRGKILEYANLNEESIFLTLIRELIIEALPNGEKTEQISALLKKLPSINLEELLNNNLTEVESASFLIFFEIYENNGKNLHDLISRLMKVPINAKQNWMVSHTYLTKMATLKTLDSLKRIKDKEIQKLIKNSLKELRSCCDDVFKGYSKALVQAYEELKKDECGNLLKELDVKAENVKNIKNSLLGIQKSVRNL

Compound	Activity (%) AAA1 [1]	Activity (%) aaa1 [2]	reduction in enzyme activity [3]	effect on enzyme activity [3]	N^α -acetylation by yeast M-N^α AT [4]
ATKAVCVLKGDGPVQGSINFEQKE (ATKAVCVLKGDGPVQGSINFEQKE) [Superoxide dismutase (1-24) (Human)]	80 ± 6%	0%			
[Cl-].[Na+] [NaCl]			50%	did not affect the enzyme activity	
[Cl-].[K+] [KCl]			50%	did not affect the enzyme activity	
24 residue synthetic peptide mimicking the NH2 terminus of yeast actin: 24 residue synthetic peptide mimicking the NH2 terminus of yeast actin (MDSEVAALVIDNGSGMCKAGFAGD; UniProt P60010 1-24, looked up, fragment)					will acetylate
